Assay results as given in publication PMC9573605, “Exploring Nitric Oxide (NO)-Releasing Celecoxib Derivatives as Modulators of Radioresponse in Pheochromocytoma Cells” (Molecules, 2022).

Tests used:
recombinant human COX-2 = molecular target: T1, recombinant human COX-2 (Homo sapiens, UniProt P35354); assay: COX Fluorescent Inhibitor Screening Assay, COX-2; assay type: biochemical; conditions: for IC50: human COX-2; for SI: COX-1 vs COX-2 selectivity index
T1 construct: purchased Cayman Chemical 700100
T1 sequence (P35354 18-604): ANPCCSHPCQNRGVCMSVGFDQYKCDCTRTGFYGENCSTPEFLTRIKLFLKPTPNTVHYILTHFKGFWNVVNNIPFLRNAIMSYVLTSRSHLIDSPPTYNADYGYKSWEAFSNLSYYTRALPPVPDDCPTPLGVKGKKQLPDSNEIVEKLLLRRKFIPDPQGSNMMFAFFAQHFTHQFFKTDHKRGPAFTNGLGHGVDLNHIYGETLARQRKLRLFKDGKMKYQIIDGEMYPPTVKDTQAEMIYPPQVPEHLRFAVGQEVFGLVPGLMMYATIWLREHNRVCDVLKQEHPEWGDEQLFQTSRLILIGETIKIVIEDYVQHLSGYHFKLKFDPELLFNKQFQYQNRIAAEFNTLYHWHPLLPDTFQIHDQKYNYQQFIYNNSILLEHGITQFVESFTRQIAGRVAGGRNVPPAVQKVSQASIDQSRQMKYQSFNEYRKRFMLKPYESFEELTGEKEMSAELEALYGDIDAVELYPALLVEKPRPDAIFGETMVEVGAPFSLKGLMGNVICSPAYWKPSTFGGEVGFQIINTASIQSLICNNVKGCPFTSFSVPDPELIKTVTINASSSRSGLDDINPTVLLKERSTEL
Protocol: COX inhibition (Table 1) was evaluated in vitro using purified ovine COX-1 and recombinant human COX-2 enzyme in a commercially available “COX Fluorescent Inhibitor Screening Assay KIT” (item no. 700100, Cayman Chemical, Ann Arbor, MI, USA). Celecoxib served as a reference and inhibition data concerning 4a, 4e, 5a and 5e were previously reported by us and is herein discussed for comparison.
COX inhibition activity against ovine COX-1 and human COX-2 was determined using the fluorescence-based COX assay “COX Fluorescent Inhibitor Screening Assay Kit” (catalog number 700100; Cayman Chemical, Ann Arbor, MI, USA) according to the manufacturer’s instructions. Compounds 6a–d were screened at a concentration of 100 µM, all others were assayed in a concentration range of 0.1 nM to 100 μM in duplicate.

[1] = Fluorometric NO release assay (Griess assay); assay type: physicochemical; conditions: 24 h, 37 °C, relative to initial molar amount of compound; for thiol-dependent NO release: 2.5 mM cysteine; for spontaneous NO release: absence of cysteine
Protocol: The nitric oxide releasing properties of the nitroester-derivatives 5a–d, 5f, and 6a–d were evaluated using a fluorometric Griess assay in the presence and absence of cysteine to determine thiol-dependent and spontaneous release of nitric oxide (Figure 3).
Nitric oxide release of compounds within 24 h at 37 °C was measured using the fluorometric nitric oxide microplate assay kit ab65327 (Abcam, Cambridge, UK). For measurement of spontaneous release, 1.8 nmol of compounds were incubated in 75 µL Dulbecco’s PBS containing 0.05% v/v residual DMSO and 2.5 mM DTPA (pH = 7.1) for 24 h at 37 °C. Thiol-dependent release was measured accordingly in presence of 2.5 mM cysteine. Two series of nitrate standards were prepared (0.2−1 nmol) in 75 µL incubation buffer, in presence or absence of cysteine, respectively. According to the manufacturer’s instructions, all nitrate content in samples and standards was enzymatically converted into nitrite through incubation with nitrate reductase for 2 h at room temperature, and the resulting nitrite content (total nitric oxide) was determined through reaction with 2,3-diaminonaphthalene followed by measurement of fluorescence intensity at λex/em = 360/450 nm using a microplate reader. Nitrite content in samples was calculated from linear regression of standards and expressed as relative nitric oxide release (%) normalized to the initial molar amount of compound. NONOate served as positive control.
Figure 3 Spontaneous and thiol-dependent NO^• release from NO-COXIBs; measured using fluorometric Griess assay (n = 2); relative release indicates the percentage of soluble nitrogen species (nitrate + nitrite) detected in the incubation buffer after 24 h compared to the initial molar amount of compounds; NO^• release of NONOate (positive control) exceeded the maximum detection limit; data presented as mean ± range.

[2] = tested on: MPC-HIF2α tumor spheroids; assay: Spheroid regrowth assay with [177Lu]LuCl3 treatment; assay type: cell-based, mouse; conditions: 10 µM compound with 0.25 MBq [177Lu]LuCl3 for six days; for growth response (spheroid size): compared to controls; for 14-day regrowth probability: controls 50%
Source text: Radionuclide therapy is a fast-evolving treatment modality gaining more importance in treating cancer. For treatment of pheochromocytomas and paragangliomas, in particular, somatostatin type 2 receptor-targeted radionuclide therapy with [^177Lu]Lu-(Tyr^3)octreotate is currently investigated in clinical controlled trials (e.g., NCT04029428, NCT03923257, NCT03206060). To assess the additional effects of NO-COXIBs on the outcome of Lu-177 therapy, a simplified in vitro setup was used here, where MPC-HIF2α tumor spheroids were treated with 10 µM of the compounds and simultaneously 0.25 MBq of [^177Lu]LuCl3 for six days.
Genetically modified mouse pheochromocytoma (MPC) cells expressing a codon-optimized Epas1 gene (encoding HIF2α) were cultured as three-dimensional tumor spheroids as published elsewhere. External X-ray beam radiation treatment and [^177Lu]LuCl3 radionuclide treatment was performed as reported previously with some modifications. In brief, spheroids were irradiated with a 200 kV photon beam using a Maxishot X-ray system equipped with a Y.TU/320-D03 tube (YXLON, Hamburg, Germany), growth of spheroids (n = 6) with diameters between 300−400 µm was measured in response to one fixed radiation dose, 15 Gy for X-ray treatment, and 0.25 MBq/mL of [^177Lu]LuCl3 for radionuclide treatment corresponding to a cumulative dose of approximately 2 Gy delivered for 6 days. The applied radiation doses were selected based on the half-maximal spheroid control doses (SCD50) as previously determined for MPC HIF2α spheroids by us. Spheroids were considered as regrown at 100 µm increase in diameter compared to treatment start or at a diameter growth rate of 15 µm per day. Results are reported as spheroid regrowth probability (%).
Figure 5 Effects of NO-COXIBs on radiation treatments of MPC-HIF2α tumor spheroids. (A) Growth responses to X-ray treatment with a radiation dose of 15 Gy in combination with 10 µM NO-COXIBs added to the medium at indicated time points before or after irradiation. (B) Growth responses to [^177Lu]LuCl3 treatment with an initial activity concentration of 0.25 MBq/mL in combination with NO-COXIBs; log2 fold changes in diameter indicate the number of diameter doublings compared to treatment start; 14-day regrowth probability indicates the fraction of spheroids able to regrow within 14 days after treatment start; (black arrows) time point or duration of radiation treatment; (w/o) vehicle controls are shown as black lines; (Ce) celecoxib.

[3] = screened at a concentration of 100 µM

IC50 (recombinant human COX-2; [3]) [µM]	thiol-dependent NO release [1]	spontaneous NO release [1]	SI (recombinant human COX-2)	IC50 (recombinant human COX-2; 0.1 nM to 100 µM in duplicate) [µM]	SMILES	growth response (spheroid size) [2]	14-day regrowth probability [2]
> 100	40%	26%			CCC(=O)NS(=O)(=O)c1ccc(-n2nc(CO[N+](=O)[O-])cc2-c2ccc(C)cc2)cc1 [6c, {1-[4-(N-Propionylsulfamoyl)phenyl]-5-(p-tolyl)-1H-pyrazol-3-yl}methyl nitrate]	prevented spheroids from shrinking in size	40%
	29–53%	10–22%	>84	1.18	COc1ccc(-c2cc(CO[N+](=O)[O-])nn2-c2ccc(S(N)(=O)=O)cc2)cc1 [5f, [5-(4-Methoxyphenyl)-1-(4-sulfamoylphenyl)-1H-pyrazol-3-yl]methyl nitrate]	prevented spheroids from shrinking in size	60–80%
> 100	29–53%	10–22%			CCC(=O)NS(=O)(=O)c1ccc(-n2nc(CO[N+](=O)[O-])c(Cl)c2-c2ccc(C)cc2)cc1 [6a, {4-Chloro-1-[4-(N-propionylsulfamoyl)phenyl]-5-(p-tolyl)-1H-pyrazol-3-yl}methyl nitrate]	prevented spheroids from shrinking in size	
	17%	no detectable	>47	2.12	Cc1ccc(-c2c(Cl)c(CO[N+](=O)[O-])nn2-c2ccc(S(C)(=O)=O)cc2)cc1 [5c, {4-Chloro-1-[4-(methylsulfonyl)phenyl]-5-(p-tolyl)-1H-pyrazol-3-yl}methyl nitrate]	prevented spheroids from shrinking in size	60–80%
	29–53%	10–22%	>92	1.08	COc1ccc(-c2c(Cl)c(CO[N+](=O)[O-])nn2-c2ccc(S(C)(=O)=O)cc2)cc1 [5d, {4-Chloro-5-(4-methoxyphenyl)-1-[4-(methylsulfonyl)phenyl]-1H-pyrazol-3-yl}methyl nitrate]	prevented spheroids from shrinking in size	60–80%
> 100	56%	no detectable			CCC(=O)NS(=O)(=O)c1ccc(-n2nc(CO[N+](=O)[O-])c(Cl)c2-c2ccc(OC)cc2)cc1 [6b, {4-Chloro-5-(4-methoxyphenyl)-1-[4-(N-propionylsulfamoyl)phenyl]-1H-pyrazol-3-yl}methyl nitrate]		100%
> 100	65%	40%			CCC(=O)NS(=O)(=O)c1ccc(-n2nc(CO[N+](=O)[O-])cc2-c2ccc(OC)cc2)cc1 [6d, {5-(4-Methoxyphenyl)-1-[4-(N-propionylsulfamoyl)phenyl]-1H-pyrazol-3-yl}methyl nitrate]	prevented spheroids from shrinking in size	100%
